In BindingDB's records for PubMed 35063633 (Kumamoto University, 2022):

Legend:
[1] = Inhibition of human constitutive proteasome subunit beta type-2 in human erythrocytes using fluorogenic substrate by […]
[2] = Inhibition of human constitutive proteasome subunit beta type-1 in human erythrocytes using fluorogenic substrate by […]

## CCC(C)/C=C(\C)c1cc2c(cn1)C(=O)C1=C(N)C(=O)C(OC)=CC1=C2 (stereo unspecified)
[1]
  IC50: 42 µM
[2]
  IC50: 17 µM

## CCC(C)/C=C(\C)c1cc2c(cn1)C(=O)c1c(cc(OC)c(O)c1O)C2=O (stereo unspecified)
[1]
  IC50: > 50 µM
[2]
  IC50: > 50 µM

## CCC(C)/C=C(\C)C1=Cc2cc3c(c(O)c2CO1)C(=O)C(O)(CC(C)=O)C(OC)=C3 (stereo unspecified)
[1]
  IC50: > 50 µM
[2]
  IC50: 19 µM
